This is an account of results in US20260297131A1, “COMPOSITIONS AND METHODS FOR PEPTIDE-BASED MODULATORS OF HUMAN PAPILLOMAVIRUS ONCOPROTEIN E6” (priority 2023, published 2026).

Read-outs that look alike come from different tables or passages of the source. Square brackets hold non-standard residues; d marks the D form. Peptide text beside a SMILES is read from it. * marks the point of attachment. Acetyl(9-fluorenyl) = O=C(CC1c2ccccc2-c2ccccc21)*; Anthracene1carbonyl = O=C(c1cccc2cc3ccccc3cc12)*; 2Nal = N[C@@H](Cc1ccc2ccccc2c1)C(=O)O; Gly(cPent) = N[C@H](C(=O)O)C1CCCC1; X1 = O=C(Cn1c2ccccc2c2ccccc21)*; Aad = N[C@@H](CCCC(=O)O)C(=O)O; Cba = N[C@@H](CC1CCC1)C(=O)O; Aib = CC(C)(N)C(=O)O; Dha = C=C(N)C(=O)O

What is called Ki is the equilibrium dissociation constant of an inhibitor or competing ligand from its target. The low end stands for tighter binding, the high end for weaker binding. The term kinact denotes the maximal first-order rate at which the target is inactivated.

Assay [1] has as its target T1, MBP-16E6 (Human papillomavirus 16, UniProt P03126, C104S/C118S/C147S/C87S). Nature of the assay: biochemical.
Assay [2] concerns the target T1, MBP-16E6. Conditions: for mono-crosslink yield at 1 h: 1 μM MBP-16E6, 4 μM Dha peptide; for mono-crosslink in 2 h: 2 h at 37° C., 10 eq. to protein 16E6; for crosslinking to MBP-16E6: LC-MS.
The target in assay [3] is T1, MBP-16E6. Conditions: for improvement of binding relative to peptide 18: apparent Ki.
The target in assay [4] is SARS-CoV-2 3C-Like Protease. Conditions: role: inhibitor; comparison drug; cited from earlier work.
Assay [5] has as its target T1, MBP-16E6.
Another assay addresses MBP-16E6 C58S (Human papillomavirus 16, UniProt P03126, C104S/C118S/C147S/C58S/C87S). To be noted: 12 h, PBS, 37° C.
The target in another assay is MBP-16E6 L57A (Human papillomavirus 16, UniProt P03126, C104S/C118S/C147S/C87S/L57A). Conditions: 10 μM reactide 18.
Assay [6] addresses T1, MBP-16E6. Conditions: 1 μM MBP-16E6, Dha peptide mixture 12 μM, 2 h, 37° C.
In another assay the target is Sumo-MDM2 (Homo sapiens, UniProt Q00987). In words: Crosslinking in a protein mixture, Sumo-MDM2. Conditions: 10 μM peptide, 37° C., 12 h. It is filed as binding.
Sumo-MDM2, sequence (Q00987 25-109): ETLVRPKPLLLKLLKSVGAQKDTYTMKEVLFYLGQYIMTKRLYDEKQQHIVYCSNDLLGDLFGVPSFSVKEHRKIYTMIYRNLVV
For another assay, the target named is T2, THRA (Homo sapiens, UniProt P10827).
T2 sequence (P10827 148-410 limits assumed): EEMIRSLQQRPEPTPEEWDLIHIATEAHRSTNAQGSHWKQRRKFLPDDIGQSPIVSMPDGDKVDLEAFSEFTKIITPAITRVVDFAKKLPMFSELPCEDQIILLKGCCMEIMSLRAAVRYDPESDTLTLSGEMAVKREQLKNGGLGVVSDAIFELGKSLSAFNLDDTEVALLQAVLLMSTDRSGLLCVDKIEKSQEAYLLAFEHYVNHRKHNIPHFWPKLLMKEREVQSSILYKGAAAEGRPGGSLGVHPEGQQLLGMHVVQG
It is filed as binding.

The next assay addresses 16E6/E6AP (Human papillomavirus 16, UniProt P03126, C104S/C118S/C147S/C87S). To be noted: 1 μM MBP-16E6.
Assay [7] addresses bovine serum albumin (BSA) (Bos taurus, UniProt P02769). In words: Crosslinking in a protein mixture, BSA. It is filed as binding. To be noted: 10 μM peptide, 37° C., 12 h.

bovine serum albumin (BSA), sequence (P02769 25-607): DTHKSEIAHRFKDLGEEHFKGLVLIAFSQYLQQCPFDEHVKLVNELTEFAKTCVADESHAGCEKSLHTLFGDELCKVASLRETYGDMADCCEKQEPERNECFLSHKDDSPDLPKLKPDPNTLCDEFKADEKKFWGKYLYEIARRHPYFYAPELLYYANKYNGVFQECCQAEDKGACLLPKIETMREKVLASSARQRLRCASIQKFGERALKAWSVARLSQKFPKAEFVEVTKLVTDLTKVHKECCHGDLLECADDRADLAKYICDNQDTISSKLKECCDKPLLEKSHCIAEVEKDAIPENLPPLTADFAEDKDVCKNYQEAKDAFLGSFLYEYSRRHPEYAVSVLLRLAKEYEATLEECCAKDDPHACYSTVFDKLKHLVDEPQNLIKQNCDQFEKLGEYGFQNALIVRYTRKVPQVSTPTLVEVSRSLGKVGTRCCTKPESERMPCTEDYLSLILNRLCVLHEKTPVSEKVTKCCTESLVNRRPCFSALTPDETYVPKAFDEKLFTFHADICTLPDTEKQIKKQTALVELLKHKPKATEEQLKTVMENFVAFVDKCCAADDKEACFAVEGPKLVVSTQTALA

`C=C(NC(=O)[C@H](CC(C)C)NC(=O)[C@H](CC1CCC1)NC(=O)[C@H](CCC(=O)O)NC(=O)C(C)(C)NC(=O)[C@H](CC(C)C)NC(=O)[C@@H](NC(=O)[C@H](Cc1ccc2ccccc2c1)NC(=O)[C@H](CCCC(=O)O)NC(=O)[C@H](C)NC(=O)[C@H](CO)NC(=O)[C@H](CCC(N)=O)NC(=O)[C@@H]1CCCN1C(=O)[C@@H](NC(=O)Cn1c2ccccc2c2ccccc21)[C@@H](C)CC)C1CCCC1)C(N)=O` [18-Car-IPQSA-truncEER] (X1-IPQSA[Aad][2Nal][Gly(cPent)]L[Aib]E[Cba]L[Dha]-NH2) yielded a Ki on MBP-16E6 [1] of 44 ± 11 nM. On MBP-16E6 [2], the “mono-crosslink yield at 1 h” value is on record as 76% and the “mono-crosslink in 2 h” value is listed as “quantitatively mono-crosslink”.
In the case of `C=C(NC(=O)[C@H](C)NC(=O)[C@H](C)NC(=O)[C@H](CCC(=O)O)NC(=O)C(C)(C)NC(=O)[C@H](C)NC(=O)[C@@H](NC(=O)[C@H](Cc1ccc2ccccc2c1)NC(=O)[C@@H](N)CCCC(=O)O)C1CCCC1)C(=O)N[C@@H](CCC(=O)O)C(=O)N[C@@H](CCC(=O)O)C(=O)N[C@@H](CCCNC(=N)N)C(N)=O` [Peptide 18-3L3A] (H-[Aad][2Nal][Gly(cPent)]A[Aib]EAA[Dha]EER-NH2), the “binding to MBP-16E6” value at MBP-16E6 [3] (BLI) is given as “no observable binding”. In addition, the “crosslinking to MBP-16E6” value at MBP-16E6 [2] was “no observable crosslinking”.
In the case of `C=C(NC(=O)[C@H](CC(C)C)NC(=O)[C@H](CC1CCC1)NC(=O)[C@H](CCC(=O)O)NC(=O)C(C)(C)NC(=O)[C@H](CC(C)C)NC(=O)[C@@H](NC(=O)[C@H](Cc1ccc2ccccc2c1)NC(=O)[C@H](CCCC(=O)O)NC(=O)[C@H](C)NC(=O)[C@H](CO)NC(=O)[C@H](CCC(N)=O)NC(=O)[C@@H]1CCCN1C(=O)[C@@H](NC(=O)Cn1c2ccccc2c2ccccc21)[C@@H](C)CC)C1CCCC1)C(=O)N[C@@H](CCC(=O)O)C(=O)N[C@@H](CCC(=O)O)C(=O)N[C@@H](CCCNC(=N)N)C(N)=O` [Peptide 18-Car-IPQSA] (X1-IPQSA[Aad][2Nal][Gly(cPent)]L[Aib]E[Cba]L[Dha]EER-NH2), the inhibition constant Ki at MBP-16E6 [1] worked out at 25 ± 5.5 nM. Besides, on MBP-16E6 [3], the “improvement of binding relative to peptide 18” value was 7 fold. Further, on MBP-16E6 [2], the “mono-crosslink yield at 1 h” value was determined as 85% and the “mono-crosslink in 2 h” value is “quantitatively mono-crosslink”.
Consider `C=C(NC(=O)[C@H](CC(C)C)NC(=O)[C@H](CC1CCC1)NC(=O)[C@H](CCC(=O)O)NC(=O)C(C)(C)NC(=O)[C@H](CC(C)C)NC(=O)[C@@H](NC(=O)[C@H](Cc1ccc2ccccc2c1)NC(=O)[C@H](CCCC(=O)O)NC(=O)Cn1c2ccccc2c2ccccc21)C1CCCC1)C(=O)N[C@@H](CCC(=O)O)C(=O)N[C@@H](CCC(=O)O)C(=O)N[C@@H](CCCNC(=N)N)C(N)=O` [Peptide 18-Car] (X1-[Aad][2Nal][Gly(cPent)]L[Aib]E[Cba]L[Dha]EER-NH2), for which the Ki on MBP-16E6 [1] amounted to 96 ± 33 nM. For the same compound, the “improvement of binding relative to peptide 18” value on MBP-16E6 [3] is 3 fold. Further, at MBP-16E6 [2], the “mono-crosslink in 2 h” value is “quantitatively mono-crosslink”.
In the case of `C=C(NC(=O)[C@H](CC(C)C)NC(=O)[C@H](CC1CCC1)NC(=O)[C@H](CCC(=O)O)NC(=O)C(C)(C)NC(=O)[C@H](CC(C)C)NC(=O)[C@@H](NC(=O)[C@H](CCCCNC(=O)Cn1c2ccccc2c2ccccc21)NC(=O)[C@H](CCCC(=O)O)NC(C)=O)C1CCCC1)C(=O)N[C@@H](CCC(=O)O)C(=O)N[C@@H](CCC(=O)O)C(=O)N[C@@H](CCCNC(=N)N)C(N)=O` [Peptide 18-Naf2Cab] (Ac-[Aad]K(X1)[Gly(cPent)]L[Aib]E[Cba]L[Dha]EER-NH2), at MBP-16E6 [1], the Ki was determined as 51 ± 11 nM. At MBP-16E6 [2], the “mono-crosslink yield at 1 h” value worked out at 83% and the “mono-crosslink in 2 h” value was “quantitatively mono-crosslink”.
Consider `CC(C)(C)[C@H](NC(=O)C(F)(F)F)C(=O)N1C[C@H]2[C@@H]([C@H]1C(=O)N[C@H](C#N)C[C@@H]1CCNC1=O)C2(C)C` [nirmatrelvir], for which, in assay [4], the kinact/Ki was 55000 M⁻¹ s⁻¹.
For `C=C(NC(=O)[C@H](CC(C)C)NC(=O)[C@H](CC1CCC1)NC(=O)[C@H](CCC(=O)O)NC(=O)C(C)(C)NC(=O)[C@H](CC(C)C)NC(=O)[C@@H](NC(=O)[C@H](Cc1ccc2ccccc2c1)NC(=O)[C@@H](N)CCCC(=O)O)C1CCCC1)C(=O)N[C@@H](CCC(=O)O)C(=O)N[C@@H](CCC(=O)O)C(=O)N[C@@H](CCCNC(=N)N)C(N)=O` [peptide 18] (H-[Aad][2Nal][Gly(cPent)]L[Aib]E[Cba]L[Dha]EER-NH2), the “improved affinity compared to parent reactide ELT-DHA9G” value at MBP-16E6 [3] worked out at 50 fold. Besides, on MBP-16E6 [2] (10 μM reactide, 1 μM MBP-16E6, PBS, 37° C., 2 h), the mono-crosslinking was greater than 95%. The “crosslinking to MBP-16E6” value at MBP-16E6 [2] is listed as “Quantitative mono-crosslinked”. On MBP-16E6 [5] (kinetic study, kinact/Ki), the “improvement over E3 (ELT-DHA9G)” value is recorded as 50 fold. Also, the kinact/Ki at MBP-16E6 [5] (role: inhibitor) stood at 22700 M⁻¹ s⁻¹. Also, the maximal inactivation rate constant (kinact) at MBP-16E6 [5] (role: inhibitor, first-order rate constant, steady-state approximation) came to 0.018 s⁻¹. The “crosslinking to C58S” value at MBP-16E6 C58S (10 μM reactide 18) is reported as “No crosslinking”. In addition, the “crosslinking to L57A” value on MBP-16E6 L57A is “no crosslinking”. For the same compound, on MBP-16E6 [6], the “mono-crosslink yield in competitive mixture” value amounted to 83%.
On to `C=C(NC(=O)[C@H](CC(C)C)NC(=O)[C@H](CC(C)C)NC(=O)[C@H](CCC(=O)O)NC(=O)[C@H](CCC(N)=O)NC(=O)[C@H](CC(C)C)NC(=O)[C@@H](NC(=O)[C@H](CC(C)C)NC(=O)[C@H](CCC(=O)O)NC(=O)[C@H](C)NC(=O)[C@H](CO)NC(=O)[C@H](CCC(N)=O)NC(=O)[C@@H]1CCCN1C(=O)[C@@H](NC(=O)CC1c2ccccc2-c2ccccc21)[C@@H](C)CC)[C@@H](C)O)C(=O)N[C@@H](CCCNC(=N)N)C(=O)N[C@@H](CCCNC(=N)N)C(=O)N[C@@H](CCCCN)C(=O)N[C@@H](CCCCN)C(=O)N[C@@H](CCCCNC(=O)c1cccc2cc3ccccc3cc12)C(N)=O` [reactide 13] ({Acetyl(9-fluorenyl)}-IPQSAELTLQELL[Dha]RRKKK(Anthracene1carbonyl)-NH2), for which, on Sumo-MDM2, the “modification of MDM2” value was “no observable modifications”. The “crosslinking to MBP-16E6” value on MBP-16E6 [2] is reported as “Quantitative mono-crosslinked”. For the same compound, the “mono-crosslinked conversion of 16E6 in protein mixture” value on MBP-16E6 [2] (protein mixture with BSA and Sumo-MDM2 (1 μM each), 10 μM peptide, 37° C., 12 h) is on record as greater than 95%. Also, the “crosslink to THRA” value on THRA is listed as “no crosslink”. Also, the “crosslinking to C58S” value at MBP-16E6 C58S (3 μM peptide) is on record as “No crosslinking”; at MBP-16E6 C58S (3 μM peptide, listed as peptide 13), “no appreciable amount of reaction product”. On 16E6/E6AP, the “BLI response signal to immobilized E6AP protein” value is recorded as “significantly decreased BLI response signal”. In assay [7], the “modification of BSA” value was “no observable modifications”.
